# What was measured:
# [1] = molecular target: T1, human adenosine A1 receptor (Homo sapiens, UniProt P30542); assay: Binding affinity to adenosine A1 receptor (3H-CCPA displacement); conditions: membranes of CHOK1 cells expressing human A1 receptor, Cheng-Prusoff
# T1 construct: expressed in transfected cells; host or cells: CHOK1 cells (membrane sample)
# T1 sequence (P30542 1-326): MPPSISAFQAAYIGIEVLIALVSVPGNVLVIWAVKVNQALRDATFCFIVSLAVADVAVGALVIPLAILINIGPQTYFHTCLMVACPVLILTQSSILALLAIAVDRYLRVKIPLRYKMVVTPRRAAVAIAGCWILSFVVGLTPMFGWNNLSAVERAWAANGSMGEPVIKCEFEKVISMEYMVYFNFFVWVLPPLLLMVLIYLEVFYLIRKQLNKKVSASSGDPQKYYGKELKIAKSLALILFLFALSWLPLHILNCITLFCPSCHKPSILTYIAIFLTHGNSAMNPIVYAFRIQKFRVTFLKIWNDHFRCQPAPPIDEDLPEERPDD
# Procedure: Measurement of the binding affinity to adenosine A1 receptor
# A human adenosine A1 receptor cDNA was expressed in excess in CHOK1 cells, and this membrane sample was suspended at a protein concentration of 66.7 μg/ml in 20 mM HEPES buffer, pH 7.4 (10 mM MgCl2, 100 mM NaCl). To 0.45 ml of this membrane sample suspension were added 0.025 ml of 60 nM tritium-labeled chlorocyclopentyl adenosine (^3H-CCPA, from NEN Ltd.) and 0.025 ml of test compound. This mixture was left at 30° C. for 120 minutes, filtered rapidly under suction through a glass fiber filter (GF/B, from Whatman), and immediately washed twice with 5 ml of 50 mM water-cooled Tris-HCl buffer. Thereafter, the glass fiber filter was transferred to a vial, scintillator was added thereto, and the radioactivity on the filter was measured by a liquid scintillation counter. The inhibition of binding of ^3H-CCPA to A1 receptor by the test compound was determined using the following formula, and from this value, 50% inhibition concentration (IC50) was calculated. Inhibition (%)=[1-{(binding in the presence of the test compound-nonspecific binding)/(total binding-nonspecific binding)}]×100
# (§1) In the above formula, the total binding means ^3H-CCPA-bound radioactivity in the absence of the test compound; the nonspecific binding means ^3H-CCPA-bound radioactivity in the presence of 100 μM CPA ([R]-[1-methyl-2-phenylethyl]adenosine); and the binding in the presence of the test compound means ^3H-CCPA-bound radioactivity in the presence of the test compound at predetermined concentrations. The inhibition constant (Ki value) in the table was determined from the formula of Cheng-Prusoff.
# [2] = molecular target: T2, human adenosine A2B receptor (Homo sapiens, UniProt P29275); assay: Inhibition of NECA-stimulated production of cAMP in adenosine A2B receptor-expressing CHOK1 cells; type: cell-based; conditions: cAMP stimulated by 30 nM NECA
# T2 construct: expressed in transfected cells; host or cells: CHOK1 cells
# T2 sequence (P29275 1-332): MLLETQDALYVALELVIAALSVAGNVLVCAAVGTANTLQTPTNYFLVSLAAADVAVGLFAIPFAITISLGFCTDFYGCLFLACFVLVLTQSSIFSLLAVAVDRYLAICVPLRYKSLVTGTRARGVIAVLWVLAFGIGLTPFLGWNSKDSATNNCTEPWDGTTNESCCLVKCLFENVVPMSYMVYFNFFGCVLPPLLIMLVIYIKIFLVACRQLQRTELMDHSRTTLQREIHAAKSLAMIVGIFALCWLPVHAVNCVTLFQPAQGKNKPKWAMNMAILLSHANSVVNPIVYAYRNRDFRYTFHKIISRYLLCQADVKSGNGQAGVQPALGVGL
# Procedure: Experiment of Inhibition of NECA-stimulated Production of cAMP in Adenosine A2B Receptor-expressing Cells
# CHOK1 cells where human adenosine A2B receptor had been expressed in excess were plated onto a 24-well plate at a density of 1.5×10^5 cells/well, cultured overnight, and used in the experiment. The degree of inhibitory effect of the test compound on the amount of cAMP produced by stimulation with 30 nM 5′-N-ethylcarboxyamide adenosine (NECA from Sigma) was evaluated in terms of affinity for A2B receptor. That is, the adhering cells were washed twice with 2 ml/well Krebs-Ringer buffer solution (containing 0.1% BSA; pH 7.4) and pre-incubated for 30 minutes in a volume of 0.5 ml/well. Then, a mixed solution containing NECA and the test compound was added in a volume of 0.1 ml/well in the presence of a phosphodiesterase inhibitor Ro-20-1724 (a product of RBI). After pre-incubation for 15 minutes, the reaction was terminated with 0.1 N HCl in a volume of 300 μl/well. Measurement of intracellular cAMP was carried out using a cAMP enzyme immunoassay kit produced by Amersham. The inhibition of NECA-stimulated production of cAMP by the test compound was determined using the following equation: Inhibition (%)=[1−{(amount of cAMP in the coexistence of NECA and the test compound-amount of cAMP in only the Krebs-Ringer buffer solution)/(amount of cAMP upon stimulation with NECA only-amount of cAMP in only the Krebs-Ringer buffer solution)}]×100
# [3] = system: haloperidol-induced catalepsy; assay: Evaluation of effects on haloperidol-induced catalepsy; type: in vivo, mouse; conditions: ICR mice, haloperidol 1 mg/kg i.p., 1 hour after administration, score 0-5
# Text: Evaluation of Effects on Haloperidol-induced Catalepsy Parkinson's disease is a disease caused by the degeneration or cell death of nigrostriatal dopaminergic neurons. The administration of haloperidol (dopamine D1/D2 receptor antagonist) blocks postsynaptic D2 receptors to induce catalepsy. The haloperidol-induced catalepsy has been known as a classic model that mimics Parkinson's disease by drug administration (Eur. J. Pharmacol., 182, 327-334(1990)). The adenosine A2A receptor antagonist compounds identified by measuring on their binding abilities to the receptors in Test Examples 1 to 3, the salts thereof, solvates of them, or pharmaceutical compositions containing those were evaluated for effect on haloperidol-induced catalepsy by the method described below. That is, the experiment was conducted by eight 5-week-old male ICR mice (available from Charles River) per group. Haloperidol (manufactured by Sigma Co., Ltd.) was dissolved in a 6.1% tartaric acid solution and the resulting solution in a dose of 1 mg/kg was then intraperitoneally administered to the mice. The test compound was used as a 0.5% MC suspension. 1.5 hours after the intraperitoneal administration of haloperidol, each of the suspension with the test compound and the suspension without the test compound (control) was orally administered to the mice (0.1 ml per 10 g of mouse body weight). 1 hour after the administration of the test compound, the degree of catalepsy was measured with respect to each of the mice such that a pair of only forelimbs and a pair of only hindlimbs of each mouse were placed by turns on a stand 4.5 cm in height and 10 cm in width. […] Catalepsy scores and criterions are as follows. […] The effects of the compound were determined by making a comparison between the score of the control group and the score of the test group in which the test compound was administered. A significant difference was analyzed by Dunnett's-test.
# adenosine A2A receptor = molecular target: T3, adenosine A2A receptor (Homo sapiens, UniProt P29274); assay: Binding ability to adenosine A2A receptor (3H-CGS21680 displacement); conditions: A2A receptor membrane sample, Cheng-Prusoff
# T3 construct: purchased Receptor Biology Inc
# T3 sequence (P29274 whole entry): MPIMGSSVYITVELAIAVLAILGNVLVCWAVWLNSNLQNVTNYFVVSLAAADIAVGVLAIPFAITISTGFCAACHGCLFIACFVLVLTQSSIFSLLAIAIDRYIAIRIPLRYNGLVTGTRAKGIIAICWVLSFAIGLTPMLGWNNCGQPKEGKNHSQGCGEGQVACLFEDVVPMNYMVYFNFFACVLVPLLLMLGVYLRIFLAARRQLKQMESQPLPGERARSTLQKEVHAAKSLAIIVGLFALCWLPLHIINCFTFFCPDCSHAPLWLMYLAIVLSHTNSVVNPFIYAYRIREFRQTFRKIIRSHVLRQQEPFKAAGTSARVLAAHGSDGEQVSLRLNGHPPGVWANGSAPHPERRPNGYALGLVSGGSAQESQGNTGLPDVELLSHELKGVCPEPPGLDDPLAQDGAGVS
# Procedure: Measurement of the Binding Ability to Adenosine A2A Receptor
# An experiment of inhibition of binding to adenosine A2A receptor was conducted using a membrane sample (Receptor Biology Inc.) where an adenosine A2A receptor cDNA was expressed in excess. This membrane sample was suspended at a protein concentration of 22.2 μg/ml in 20 mM HEPES buffer, pH 7.4 (10 mM MgCl2 and 100 mM NaCl). To 0.45 ml of this membrane sample suspension were added 0.025 ml of 500 nM tritium-labeled 2-p-[2-carboxyethyl]phenetylamino-5′-N-ethylarboxyamide adenosine (^3H-CGS21680, from NEN) and 0.025 ml of test compound. This mixture was left at 25° C. for 90 minutes, filtered rapidly under suction through a glass fiber filter (GF/B, from Whatman), and immediately washed twice with 5 ml of 50 mM ice-cooled Tris-HCl buffer. Thereafter, the glass fiber filter was transferred to a vial, scintillator was added thereto, and the radioactivity on the filter was measured by a liquid scintillation counter. The inhibition of binding of ^3H-CGS21680 to A2A receptor by the test compound was determined using the following formula, and from this inhibition, 50% inhibition concentration (IC50) was calculated. Inhibition (%)=[1−{[(binding in the presence of the test compound)−(nonspecific binding)]/[(total binding)−(nonspecific binding)]}]×100
# as §1, with “Here,” for “In the above formula,”, “^3H-CGS21680-bound” for “^3H-CCPA-bound”, “RPIA;” for “CPA ([R]-[1-methyl-2-phenylethyl]adenosine);”
# SD IGS rats = assay: Evaluation of defecation-promoting action; type: in vivo, rat; conditions: 3 mg/kg oral, 90 minutes after administration, per cage (3 animals/cage)
# Text: Evaluation of Defecation-Promoting Action
# The defecation-promoting action of the adenosine A2B receptor-inhibiting compound which was identified by measuring the binding affinity or antagonistic activity thereof to the adenosine receptor in Test Examples 1 to 3, a salt thereof, a solvate of them, or a pharmaceutical composition containing it can be evaluated on the basis of the following method. That is, SD IGS rats (6 weeks-old, from Charles River) were placed in cages (3 animals/cage) and preliminarily allowed food and water ad libitum and raised for 1 week. Then, a tared water-absorbing sheet was placed below each cage, and the animals were fasted but allowed water ad libitum throughout the experiment. After 1.5 hours, the fecal pellets were collected from each cage and observed for abnormality before the experiment. The compound suspended or dissolved in 0.5% (w/v) methyl cellulose (MC) was orally administered in a volume of 5 ml/kg. On one hand, 0.5% (w/v) MC only was orally given to the control group. After administration of the compound, the rats were returned to the cage provided with a new water-absorbing sheet, and 90 minutes after the administration, the fecal pellets on the water-absorbing sheet were collected from each cage, and the external appearance was observed, and then counted and weighed. The number of fecal pellets is expressed per each cage.
Ki [1] [nM],IC50 [2] [nM],Ki (adenosine A2A receptor) [nM],Compound,Catalepsy score (Mean ± S.E.) ([3]; test compound 0.1 mg/kg oral),Catalepsy score (Mean ± S.E.) ([3]; test compound 1.0 mg/kg oral),Number of fecal pellets Mean ± S.E. (SD IGS rats)
175,29,6,"Cn1cc(-c2cnc(N)nc2-c2ccco2)ccc1=O [Example 16, 5-[2-Amino-4-(2-furyl)-5-pyrimidinyl]-1-methyl-1,2-dihydro-2-pyridinone]",4.63 ± 0.38,0.88 ± 0.64,12.50 ± 0.96
289,25,3,"CCn1cc(-c2cnc(N)nc2-c2ccco2)ccc1=O [Example 17, 5-[2-Amino-4-(2-furyl)-5-pyrimidinyl]-1-ethyl-1,2-dihydro-2-pyridinone]",3.38 ± 0.53,1.13 ± 0.67,15.50 ± 3.18
114,26,2,"C=CCn1cc(-c2cnc(N)nc2-c2ccco2)ccc1=O [Example 18, 1-Allyl-5-[2-amino-4-(2-furyl)-5-pyrimidinyl]-1,2-dihydro-2-pyridinone]",–,–,14.50 ± 1.26

# Reference: patent US7396836B2, “Pyrimidine compound and medicinal composition thereof” (Eisai R&D Management Co., Ltd., priority 2001, dated 2008)
